Data on 8 compounds can be found in patent US20100292231A1, “Indazole Compounds for Treating Inflammatory Disorders, Demyelinating Disorders and Cancers” (priority 2007, published 2010).

Like-named read-outs stand apart in the source and are kept apart here. Where only a bound is given, the exact number is not on record here.

The test system of one assay is MV-4-11. Kind of assay: MTS cellular proliferation assay. In kind it is cell-based. Particulars: Homo sapiens, MV4-11, 72 hour incubation, read-out: Growth inhibitory activity (in vivo EC50 nM). From the text: The viability of Flt3 expressing cells can be evaluated using a tetrazolium salt reduction cell-based assay. […] BaF3, both wild type and mutant, as well as transfected strains, MV4-11 and MOLM14 are well-characterized Flt3-dependent humanized or human cell lines which express active Flt3 receptors (see, Yee et al. Blood (2002)100 (8):2941-2949; Levis et al. (2002) 99(11): 3885-3891). These cell lines were used to determine the ability of the compounds provided herein to inhibit Flt3 in intact cells. In each case, and by methods known to those practiced in the art of cell culture, proliferation was measured after 72 hour incubation with the compounds provided herein using a standard MTS protocol (Promega Cat #5430 “Cell Titer 96 Aqueous Non-radioactive Cell Proliferation Assay”).
In general, cells were plated at 10,000-20,000 cells per well in DMEM medium with 0.5% serum. The compound plate was set up by aliquoting into column 1 of a 96 well 300 ul polypropylene plate, the negative control (DMSO), aliquoting into column 12 the positive control and titrating the test compound in serial dilutions into columns 2-1 l. An aliquot from each well of the compound plate was transferred to the plated cells and then incubated @ […] in 5% CO2. [00538] MTS tetrazolium compound (Owen's reagent) was thawed in a H2O bath. 20 μl of MTS tetrazolium was added to each well of optical plate and the cells were incubated @ 37° C. in 5% CO2 for 2 hours. The absorbance measured at 490 nm using a microplate reader.

In assay [1] the test system is MdaMb231 cells. Kind of assay: in vitro scratch (cell migration) assay. In kind it is cell-based. As to conditions: for concentration resulting in inhibition of cell motility / migration: Mda231 cells, after 48 hrs; for Migration: Table 5 summary, concentration inhibiting migration. On the procedure: The in vitro scratch assay is used to determine the ability of cancer cells to migrate into and close an open wound; such migration is considered to have a role in metastasis of tumor cells.
Cells were plated in gelatin-coated 6-well plates and grown until a confluent monolayer was formed. When confluent, a straight scratch was made with a p200 pipette tip, cells were washed and compounds were added at concentrations of 1 μM, 2.5 μM, 5 μM, 10 μM and 20 μM. Images were taken at specific reference points at 0, 24 and 48 hours with Zeiss Axiovert 40 CFL microscope and Axiocam MRc5 camera and the ability of the cells to move in and close the wound was measured.
The data is presented in FIG. 1, which is a bar plot of percent cell migration into the “wound” in each sample (measured with respect to the control) and FIG. 2, which is a plot of percent wound confluence as a function of time (measured with respect to the control).

The target of a further assay is T1, CSF-1R (Homo sapiens, UniProt P07333).
T1 construct: purchased Invitrogen (SelectScreen platform)
Description: Kinase EC50 (10 pt curve or estimate, ATP Kmapp). The assay is classed as biochemical. Particulars: from 10 pt curve or estimate based on 1 μm inhibition assay at ATP Kmapp.

Assay [2] has as its system Raw264.7 (murine macrophage-like cells). Description: sulforhodamine B (SRB) cytotoxicity assay. In kind it is cell-based. Particulars: Mus musculus, Table 5 summary, read-out: IC50 SRB assay Raw 264.7. How it is done:
(§1) The cytotoxic activity of compounds listed in Table 5 was determined with a sulforhodamine B (SRB) assay on panel of cell lines, including MdaMb231 (breast cancer), MV4-11 (leukemia), PC-3 (prostate cancer), U266B1 (multiple myeloma), C7 macrophages, and Raw264.7 (murine macrophage-like cells).
(§2) Cells growing in relevant media were seeded in a 96 well plate and left to adhere overnight. Cells were plated at appropriate cell densities: • MV4-11: 20.000 cells/well • Mda-Mb231: 6000 cells/well • C7: 10.000 cells/well • Raw264.7: 2000 cells/well • PC-3: 6000 cells/well • U266B1: 40.000 cells/well.
(§3) Cells were incubated before the compounds were added the next day to a top concentration of 100 μM and serially diluted 1 in 5 across the plate. After a 3 day incubation period (6 days for C7 and Raw264.7) cells were fixed with trichloroacetic acid (TCA) to end concentration of 10% for adherent cells and 16% end concentration for suspension cells for 1 hr at 4° C. before washing. Cells were stained with 0.4% sulforhodamine-B dye (SRB) in 1% acetic acid for 30 minutes and washed in 1% acetic acid. To solubilize the dye 100 μl 10 mM Tris, pH 10.5 was added and the absorbance was read at 564 nm. IC50 values were generated using the SoftMAX Pro™ software. The data is presented below in Tables 6 through 11.
For orientation: Sulforhodamine B stains cellular protein and so reports cell mass.

Assay [3] deals with MdaMb231 cells. Description: BrdU cell proliferation assay. In kind it is cell-based. As to conditions: for concentration at which cell proliferation was inhibited (BrdU): MdaMb231 cells, 24 hour treatment; for BrdU (Inhibition of cell proliferation): Table 5 summary, concentration inhibiting proliferation. On the procedure: Representative compounds of the present invention were evaluated in a BrdU assay to determine their effect on the cell proliferation of MdaMb231 cells.
The effect of the inventive compounds on cell proliferation was analyzed by detecting 5-Bromo-2′-deoxy-uridine (BrdU) incorporation after 24 hour treatment with the test compounds. The cell proliferation ELISA BrdU kit (Roche™ cat. No. 11 647 229 001) was used according to manufacturer's protocol. Cells were plated at 10.000 cells/well. The next day compounds were added in concentration range of 2.5, 5, 10 and 20 μM.
After 24 hours, 12 μl/well BrdU labelling solution was added and cells were incubated for 6 hours at 37° C./5% CO2 before labeling solution was removed. Cells were fixed with 200 μl FixDenat™ solution for 30 minutes. After removal of fixative 100 μl BrdU-peroxidase working solution was added and cells were incubated for 90 minutes. Cells were subsequently washed three times. 100 μl substrate solution was added and after 30 minutes the absorbance was read at 370 nm.

For assay [4], the system named is MdaMb231 (breast cancer) cell line. Description: sulforhodamine B (SRB) cytotoxicity assay. In kind it is cell-based. Particulars: Homo sapiens. How it is done: as §1, §2, §3
Setting [5] is: MDA-MB-231, 72 h, 100 μM highest concentration, diluted 1:5 (two series), 3 day incubation, read-out: IC50 Measured Against MdaMb231 Cell Line.
The mark [6] stands for this setting: MDA-MB-231, Table 5 summary, read-out: IC50 SRB assay Mda MB-231.

T1 sequence (P07333 20-972): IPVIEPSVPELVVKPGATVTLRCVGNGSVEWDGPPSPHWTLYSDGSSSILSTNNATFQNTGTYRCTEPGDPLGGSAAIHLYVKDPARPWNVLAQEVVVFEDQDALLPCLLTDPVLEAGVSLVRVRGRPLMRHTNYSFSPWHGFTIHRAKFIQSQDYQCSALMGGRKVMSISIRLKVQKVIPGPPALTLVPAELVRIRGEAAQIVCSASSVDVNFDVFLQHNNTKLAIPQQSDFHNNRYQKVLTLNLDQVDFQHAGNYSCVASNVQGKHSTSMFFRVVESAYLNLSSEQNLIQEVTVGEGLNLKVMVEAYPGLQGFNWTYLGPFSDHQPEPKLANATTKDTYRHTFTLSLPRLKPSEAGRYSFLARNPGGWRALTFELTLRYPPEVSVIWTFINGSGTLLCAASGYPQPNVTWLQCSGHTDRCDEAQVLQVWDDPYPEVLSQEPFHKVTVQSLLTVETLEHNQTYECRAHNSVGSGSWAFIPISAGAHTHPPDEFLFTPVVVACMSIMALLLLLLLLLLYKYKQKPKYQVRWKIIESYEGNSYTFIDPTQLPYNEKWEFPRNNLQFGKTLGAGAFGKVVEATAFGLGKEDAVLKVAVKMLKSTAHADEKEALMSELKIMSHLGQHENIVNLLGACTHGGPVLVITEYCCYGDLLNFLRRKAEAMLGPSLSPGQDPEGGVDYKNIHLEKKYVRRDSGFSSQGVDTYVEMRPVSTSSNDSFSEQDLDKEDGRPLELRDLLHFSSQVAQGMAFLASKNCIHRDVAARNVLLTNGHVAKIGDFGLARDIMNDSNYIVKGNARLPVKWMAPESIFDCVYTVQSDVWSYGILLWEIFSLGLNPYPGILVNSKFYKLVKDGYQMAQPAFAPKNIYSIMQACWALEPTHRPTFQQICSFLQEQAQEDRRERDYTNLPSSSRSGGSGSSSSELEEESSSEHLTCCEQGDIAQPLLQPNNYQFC

One may read the EC50 as the concentration needed to bring the measured effect to its halfway point. With `CN(C)CCCCCNc1ccc2ncn3c4ccc5[nH]ncc5c4c(=O)c1c23` [(III)], the EC50 in the assay on MV-4-11 was 184 nM.

What is called IC50 is the midpoint of a concentration-inhibition curve. Take `O=c1c2c(NCCCN3CCOCC3)ccc3ncn(c4ccc5[nH]ncc5c14)c32` [(X)]: in the assay with MdaMb231 cells [1], the “concentration resulting in inhibition of cell motility / migration” value is 5 µM and the Migration is 5 μm. On CSF-1R, the EC50 was 280 nM. The IC50 in assay [2] was 2.7 nM. For the same compound, in the assay with MdaMb231 cells [3], the “concentration at which cell proliferation was inhibited (BrdU)” value came to 20 µM and the “BrdU (Inhibition of cell proliferation)” value came to 20 μm.

With `CN(C)CCNc1ccc2ncn3c4ccc5[nH]ncc5c4c(=O)c1c23` [(XII)], in the assay with MdaMb231 cells [1], the “concentration resulting in inhibition of cell motility / migration” value is 5 µM. The Migration in the assay with MdaMb231 cells [1] is on record as >5 μm. For the same compound, the 50% effective concentration (EC50) on CSF-1R is 360 nM. The IC50 in assay [4] (setting [5]) was 7400 nM; in assay [4] (setting [6]) it was 7400 nM; in assay [2], < 0.1 nM. The “concentration at which cell proliferation was inhibited (BrdU)” value with MdaMb231 cells [3] is 2.5 µM. Also, the “BrdU (Inhibition of cell proliferation)” value in the assay on MdaMb231 cells [3] is recorded as 2.5 μm.

For the compound `CC(CCN1CCOCC1)Nc1ccc2ncn3c4ccc5[nH]ncc5c4c(=O)c1c23` (stereo not drawn) [(XVI)], the “concentration resulting in inhibition of cell motility / migration” value in the assay on MdaMb231 cells [1] is 5 µM. In the assay with MdaMb231 cells [1], this compound came in with a Migration of 1 μm. The EC50 on CSF-1R was 245 nM. For the same compound, the half-maximal inhibitory concentration (IC50) was determined as 5100 nM in assay [4] (setting [5]), 5100 nM in assay [4] (setting [6]) and 25.7 nM in assay [2]. The “concentration at which cell proliferation was inhibited (BrdU)” value in the assay on MdaMb231 cells [3] stood at 20 µM. For the same compound, the “BrdU (Inhibition of cell proliferation)” value in the assay on MdaMb231 cells [3] is reported as 5 μm.

Consider `CN1CCN(CCCNc2ccc3ncn4c5ccc6[nH]ncc6c5c(=O)c2c34)CC1` [(XVII)], for which the “concentration resulting in inhibition of cell motility / migration” value with MdaMb231 cells [1] is 5 µM. The compound also showed a Migration in the assay on MdaMb231 cells [1] of 5 μm. Also, at CSF-1R, the EC50 is 950 nM. Further, the IC50 was determined as 45300 nM in assay [4] (setting [5]), 45300 nM in assay [4] (setting [6]) and 2.6 nM in assay [2]. The “BrdU (Inhibition of cell proliferation)” value with MdaMb231 cells [3] is reported as >20 μm.

Regarding `CN(C)CCCNc1ccc2ncn3c4ccc5[nH]ncc5c4c(=O)c1c23` [Compound (IV)], the “concentration resulting in inhibition of cell motility / migration” value with MdaMb231 cells [1] was found to be 5 µM. The Migration in the assay on MdaMb231 cells [1] is given as 1 μm. Besides, the EC50 on CSF-1R is 200 nM; in the assay with MV-4-11 it was 12 nM. Also, the values for the IC50 in assay [4] (setting [5]), in assay [4] (setting [6]) and in assay [2] were 5400 nM, 5400 nM and < 0.1 nM, respectively. Further, the “concentration at which cell proliferation was inhibited (BrdU)” value with MdaMb231 cells [3] turned out to be 2.5 µM. Besides, the “BrdU (Inhibition of cell proliferation)” value in the assay with MdaMb231 cells [3] turned out to be 2.5 μm.

For `CCN(CC)CCCNc1ccc2ncn3c4ccc5[nH]ncc5c4c(=O)c1c23` [Compound (XV)], the “concentration resulting in inhibition of cell motility / migration” value in the assay with MdaMb231 cells [1] is 1 µM. In addition, the Migration in the assay with MdaMb231 cells [1] was found to be 1 μm. For the same compound, the EC50 on CSF-1R is 490 nM. Besides, the IC50 in assay [4] (setting [5]) is 4000 nM; in assay [4] (setting [6]), 4000 nM; in assay [2], < 0.1 nM. Besides, in the assay with MdaMb231 cells [3], the “concentration at which cell proliferation was inhibited (BrdU)” value was determined as 20 µM.

Consider `CCN(CC)CCNc1ccc2ncn3c4ccc(O)cc4c(=O)c1c23` [Symadex, 5-(2-(diethylamino)ethylamino)-8-hydroxy-6H-imidazo[4,5,1-de]acridin-6-one, reference compound], for which, in the assay on MdaMb231 cells [1], the “concentration resulting in inhibition of cell motility / migration” value was found to be 10 µM. Moreover, in the assay with MdaMb231 cells [1], the Migration was found to be 10 μm. Besides, the concentration giving a half-maximal response (EC50) was 430 nM on CSF-1R and 13.1 nM in the assay on MV-4-11. Also, the 50% inhibitory concentration (IC50) in assay [4] (setting [6]) came to 6800 nM.
